What all share (assay): inhibition of tumour cell growth, NCI panel, 48 h
The subject of assay [1] is 786-0.
The test system of assay [2] is A498.
Assay [3] has as its system DU-145.
The subject of assay [4] is IGROV-1.
The test system of assay [5] is MDA-MB-231.
Assay [6] concerns MDA-MB-435.
Assay [7] concerns MDA-N.
The test system of assay [8] is OVCAR-8.
For assay [9], the system named is T47D.
The test system of assay [10] is U-251.
For assay [11], the system named is CCRF-CEM.
In assay [12] the test system is Hs-578T.
The test system of assay [13] is MCF7.
For assay [14], the system named is PC-3.
The test system of assay [15] is UACC-62.

Molecules are shown by their SMILES.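 Protocol summary: plate cells (96-well), add compound at 5 concentrations, incubate 48 h, interpolate endpoints linearly. The concentration for 50% growth inhibition is given as GI50.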 The source made the active and inactive calls. No stated cut-off is given here; in the data, active = GI50 up to about 1.1 µM and inactive = higher. A value given as a limit tells only on which side of the number the result lay.

We go through eleven compounds from ChEMBL document CHEMBL1201862, “PubChem BioAssay data set” (2004).

In the case of `Cc1cnc(Cl)nc1C(C#N)c1nc2ccccc2s1` (stereo not drawn), the GI50 in [1] is 15.7 µM (inactive); in [2], 25.2 µM (inactive); in [3], 31.8 µM (inactive); in assay [4] it was 21.6 µM (inactive); in [5] it was 40.9 µM (inactive); in assay [6] it was 22.5 µM (inactive). For the same compound, the GI50 is 15 µM (inactive) in [7], 25.7 µM (inactive) in assay [8], 34.1 µM (inactive) in [9] and 20.1 µM (inactive) in assay [10].
Consider `O=[N+]([O-])c1ccc(Cl)cc1N/N=C/c1ccnc2ccccc12`, for which the GI50 was > 100 µM (inactive) in assay [1]; > 100 µM (inactive) in assay [11]; > 100 µM (inactive) in assay [3]; 52.4 µM (inactive) in [12]; > 100 µM (inactive) in assay [4]; > 100 µM (inactive) in assay [13]. Also, the GI50 in [5] is > 100 µM (inactive); in [6], 97.3 µM (inactive); in assay [7], > 100 µM (inactive); in assay [8], 46.5 µM (inactive); in [14], > 100 µM (inactive); in assay [9], > 100 µM (inactive). For the same compound, the GI50 in assay [10] is 17.5 µM (inactive); in [15], > 100 µM (inactive).
Consider `COc1cccc2c(Nc3ccc(S(=O)(=O)Nc4ncccn4)cc3)c3ccc([N+](=O)[O-])cc3nc12`, for which the GI50 is 23.6 µM (inactive) in assay [1]; > 100 µM (inactive) in assay [2]; 9.82 µM (inactive) in assay [11]; 19.5 µM (inactive) in assay [3]; > 100 µM (inactive) in assay [12]; 4.13 µM (inactive) in assay [4]. Further, the GI50 in [13] is 47.1 µM (inactive); in [5], 38.7 µM (inactive); in assay [6], 45.6 µM (inactive); in assay [7], 54.5 µM (inactive); in [14], 40.6 µM (inactive); in [9], 8.22 µM (inactive). In addition, the GI50 in [10] is 48.5 µM (inactive); in [15] it was 9.12 µM (inactive).
Take `CC(C)C(=O)/C=C/c1c(Cl)cccc1Cl`: the GI50 in assay [1] was 7.74 µM (inactive); in assay [2] it was 21.2 µM (inactive); in assay [11], 11.6 µM (inactive); in assay [3], 3.51 µM (inactive); in assay [12], 2.35 µM (inactive); in assay [4], 3.75 µM (inactive). In addition, the GI50 in [13] is 3.76 µM (inactive); in assay [5] it was 4.28 µM (inactive); in assay [6], 3.08 µM (inactive); in [7] it was 3.05 µM (inactive); in assay [8], 3.86 µM (inactive); in assay [14], 11.5 µM (inactive). The GI50 in [9] was 2.95 µM (inactive); in assay [10], 3.82 µM (inactive); in assay [15], 6.35 µM (inactive).
`CSc1nc2c(c(N3CCOCC3)n1)C(O)n1c(nc3ccccc31)S2` (stereo not drawn): the GI50 is 44.3 µM (inactive) in [1]; 97.1 µM (inactive) in assay [2]; 21.1 µM (inactive) in [11]; > 100 µM (inactive) in [3]; 23.7 µM (inactive) in assay [12]; > 100 µM (inactive) in assay [4]. The GI50 was 23 µM (inactive) in assay [13]; 50.2 µM (inactive) in assay [5]; 95.3 µM (inactive) in assay [6]; > 100 µM (inactive) in assay [7]; 31.1 µM (inactive) in assay [8]; 37.2 µM (inactive) in assay [14]. Besides, the GI50 in assay [9] is 25.9 µM (inactive); in assay [10], 20.8 µM (inactive); in assay [15], > 100 µM (inactive).
On to `CCOC(=O)Oc1cc2ccsc2c2c1c1ccccc1n2C(=O)OCC`, for which the GI50 in assay [1] was 34.1 µM (inactive); in [2] it was 18.4 µM (inactive); in assay [11] it was > 100 µM (inactive); in assay [3], 32.8 µM (inactive); in assay [12], 36.4 µM (inactive); in assay [4] it was > 100 µM (inactive). Further, the GI50 was 59 µM (inactive) in assay [13]; 35.6 µM (inactive) in assay [5]; 68.9 µM (inactive) in [6]; 31 µM (inactive) in assay [7]; 87.7 µM (inactive) in assay [8]; 38.2 µM (inactive) in assay [14]. For the same compound, the figures for the GI50 in assay [9], in assay [10] and in assay [15] were 28.6 µM (inactive), 45 µM (inactive) and 34.4 µM (inactive), respectively.
On to `CN1CCC(C(O)(c2ccccc2)c2ccc(Br)cc2)CC1` (stereo not drawn), for which the GI50 in [1] was 14.4 µM (inactive); in assay [11], 30.5 µM (inactive); in assay [3], 81.5 µM (inactive); in assay [12], 23.8 µM (inactive); in assay [4], 25.9 µM (inactive); in assay [13], 22.6 µM (inactive). In addition, the GI50 is 14.7 µM (inactive) in [5]; 15.5 µM (inactive) in assay [6]; 15 µM (inactive) in assay [7]; 50.2 µM (inactive) in assay [8]; 22.2 µM (inactive) in [14]; 23 µM (inactive) in [9]. Moreover, the GI50 in assay [10] is 17.7 µM (inactive); in assay [15], 15.7 µM (inactive).
As for `COc1cc(O)c2c(=O)cc(C3(O)C=CC(=O)C=C3)oc2c1`, the GI50 is 4.05 µM (inactive) in assay [2]; < 0.01 µM (active) in assay [11]; 0.839 µM (active) in assay [3]; 0.968 µM (active) in assay [12]; < 0.01 µM (active) in [4]; 0.327 µM (active) in assay [5]. Also, the GI50 in assay [8] was 0.0448 µM (active); in assay [14], 0.131 µM (active); in [9], 0.378 µM (active); in assay [10], < 0.0405 µM (active); in [15], 0.378 µM (active).
Consider `NC(C/C=C/P(=O)(O)O)C(=O)O` (stereo not drawn), for which the GI50 in assay [11], in [3], in assay [12], in assay [4], in [13] and in [5] was > 100 µM (inactive) each time. Also, the GI50 in assay [6], in assay [7], in [8], in assay [14], in [9] and in assay [10] was > 100 µM (inactive) each time. In addition, the GI50 in assay [15] is > 100 µM (inactive).
For the compound `COc1ccc(-c2cc(O)c3ccc(C)nc3n2)cc1`, the GI50 in [2] was 65.6 µM (inactive); in [11], > 100 µM (inactive); in assay [3], > 100 µM (inactive); in assay [12], > 100 µM (inactive); in assay [4], 43.2 µM (inactive); in [13] it was > 100 µM (inactive). In addition, the GI50 is > 100 µM (inactive) in [5], > 100 µM (inactive) in [8], 96.8 µM (inactive) in assay [9] and 86.1 µM (inactive) in [15].
Take `Nc1nc(O)c2ncn(C3C=CC(CO)O3)c2n1` (stereo not drawn): the GI50 in assay [2] is > 100 µM (inactive); in assay [11], 11.1 µM (inactive); in assay [3], > 100 µM (inactive); in assay [12] it was > 100 µM (inactive); in [13] it was 75.2 µM (inactive); in [5], > 100 µM (inactive). Further, the GI50 in assay [6], in assay [7], in assay [8], in assay [14], in assay [9] and in [10] was > 100 µM (inactive) in each case.
